Experimental data reported in patent US11053204B2, “Pyrimidinyloxy benzene derivatives as herbicides” (FMC Corporation, priority 2015, dated 2021).

Legend:
Type in all cases: in vivo
[1] = tested on: Italian ryegrass (Lolium multiflorum); experiment: Test A preemergence, visual injury rating
Description: (§1) Seeds of plant species selected from barnyardgrass (Echinochloa crus-galli), kochia (Kochia scoparia), ragweed (common ragweed, Ambrosia elatior), Italian ryegrass (Lolium multiflorum), large (Lg) crabgrass (Digitaria sanguinalis), giant foxtail (Setaria faberii), morningglory (Ipomoea spp.), pigweed (Amaranthus retroflexus), velvetleaf (Abutilon theophrasti), wheat (Triticum aestivum), and corn (Zea mays) were planted into a blend of loam soil and sand and treated preemergence with a directed soil spray using test chemicals formulated in a non-phytotoxic solvent mixture which included a surfactant.
(§2) At the same time, plants selected from these crop and weed species and also blackgrass (Alopecurus myosuroides), and galium (catchweed bedstraw, Galium aparine) were planted in pots containing the same blend of loam soil and sand and treated with postemergence applications of test chemicals formulated in the same manner. Plants ranged in height from 2 to 10 cm and were in the one- to two-leaf stage for the postemergence treatment. Treated plants and untreated controls were maintained in a greenhouse for approximately 10 days, after which time all treated plants were compared to untreated controls and visually evaluated for injury. Plant response ratings, summarized in Table A, are based on a 0 to 100 scale where 0 is no effect and 100 is complete control. A dash (-) response means no test result.

[2] = tested on: barnyardgrass (Echinochloa crus-galli); experiment: Test A preemergence, visual injury rating; details: for Barnyardgrass plant response rating: 0 to 100 scale (0 no effect, 100 complete control); for Plant response rating, Barnyardgrass: 31 g ai/ha, 0 to 100 scale, 0 no effect, 100 complete control
Description: as §1, §2

[3] = tested on: giant foxtail (Setaria faberii); experiment: Test A preemergence, visual injury rating
Description: as §1, §2

kochia (Kochia scoparia) [4] = experiment: Test A preemergence, visual injury rating
Description: as §1, §2

[5] = tested on: pigweed (Amaranthus retroflexus); experiment: Test A preemergence, visual injury rating
Description: as §1, §2

[6] = tested on: ragweed (common ragweed, Ambrosia elatior); experiment: Test A preemergence, visual injury rating
Description: as §1, §2

[7] = tested on: Italian ryegrass (Lolium multiflorum); experiment: Test A postemergence, visual injury rating; details: 0 is no effect, 100 is complete control; for Ryegrass, Italian plant response rating: 0 to 100 scale, approximately 10 days
Description: as §1, §2

[8] = tested on: barnyardgrass (Echinochloa crus-galli); experiment: Test A postemergence, visual injury rating; details: 0 is no effect, 100 is complete control; for Barnyardgrass plant response rating: 0 to 100 scale, approximately 10 days
Description: as §1, §2

[9] = tested on: blackgrass (Alopecurus myosuroides); experiment: Test A postemergence, visual injury rating; details: 0 is no effect, 100 is complete control; for Blackgrass plant response rating: 0 to 100 scale, approximately 10 days
Description: as §1, §2

corn (Zea mays) = experiment: Test A postemergence, visual injury rating; details: 0 is no effect, 100 is complete control; for Corn plant response rating: 0 to 100 scale, approximately 10 days
Description: as §1, §2

[10] = tested on: galium (catchweed bedstraw, Galium aparine); experiment: Test A postemergence, visual injury rating; details: 0 is no effect, 100 is complete control; for Galium plant response rating: 0 to 100 scale, approximately 10 days
Description: as §1, §2

[11] = tested on: giant foxtail (Setaria faberii); experiment: Test A postemergence, visual injury rating; details: 0 is no effect, 100 is complete control; for Foxtail, Giant plant response rating: 0 to 100 scale, approximately 10 days
Description: as §1, §2

kochia (Kochia scoparia) [12] = experiment: Test A postemergence, visual injury rating; details: 0 is no effect, 100 is complete control; for Kochia plant response rating: 0 to 100 scale, approximately 10 days
Description: as §1, §2

[13] = tested on: pigweed (Amaranthus retroflexus); experiment: Test A postemergence, visual injury rating; details: 0 is no effect, 100 is complete control; for Pigweed plant response rating: 0 to 100 scale, approximately 10 days
Description: as §1, §2

[14] = tested on: ragweed (common ragweed, Ambrosia elatior); experiment: Test A postemergence, visual injury rating; details: 0 is no effect, 100 is complete control; for Ragweed plant response rating: 0 to 100 scale, approximately 10 days
Description: as §1, §2

[15] = tested on: wheat (Triticum aestivum); experiment: Test A postemergence, visual injury rating; details: 0 is no effect, 100 is complete control; for Wheat plant response rating: 0 to 100 scale, approximately 10 days
Description: as §1, §2

[16] = tested on: barnyardgrass (Echinochloa crus-galli); experiment: Test B flooded paddy test, plant response rating; details: 250 g ai/ha; Flood; scale of 0 to 100 where 0 is no effect and 100 is complete control; 13 to 15 days
Description: (§3) At time of treatment, test pots were flooded to 3 cm above the soil surface, treated by application of test compounds directly to the paddy water, and then maintained at that water depth for the duration of the test. Treated plants and controls were maintained in a greenhouse for 13 to 15 days, after which time all species were compared to controls and visually evaluated. […] A dash (-) response means no test result.

[17] = tested on: ducksalad (Heteranthera limosa); experiment: Test B flooded paddy test, plant response rating; details: 250 g ai/ha; Flood; scale of 0 to 100 where 0 is no effect and 100 is complete control; 13 to 15 days
Description: as §3

rice (Oryza sativa) = experiment: Test B flooded paddy test, plant response rating; details: 250 g ai/ha; Flood; scale of 0 to 100 where 0 is no effect and 100 is complete control; 13 to 15 days
Description: as §3

[18] = tested on: sedge, umbrella (small-flower umbrella sedge, Cyperus difformis); experiment: Test B flooded paddy test, plant response rating; details: 250 g ai/ha; Flood; scale of 0 to 100 where 0 is no effect and 100 is complete control; 13 to 15 days
Description: as §3

[19] = 125 g ai/ha, 0 to 100 scale (0 no effect, 100 complete control)
[20] = 500 g ai/ha, 0 to 100 scale (0 no effect, 100 complete control)
[21] = 31 g ai/ha, 0 to 100 scale, 0 no effect, 100 complete control

## O=C(OC1CCC1)c1c(Br)cccc1Oc1ncc(Cl)cn1 [Compound 78]
[1]; [19]
  Ryegrass, Italian plant response rating: 0
[1]; [20]
  Ryegrass, Italian plant response rating: 20
[2]; 125 g ai/ha
  Barnyardgrass plant response rating: 60
[2]; 500 g ai/ha
  Barnyardgrass plant response rating: 100
[3]; [19]
  Foxtail, Giant plant response rating: 90
[3]; [20]
  Foxtail, Giant plant response rating: 100
Kochia (Kochia scoparia) [4]; [19]
  Kochia plant response rating: 20
Kochia (Kochia scoparia) [4]; [20]
  Kochia plant response rating: 60
[5]; [19]
  Pigweed plant response rating: 80
[5]; [20]
  Pigweed plant response rating: 100
[6]; [19]
  Ragweed plant response rating: 0
[6]; [20]
  Ragweed plant response rating: 0
[7]; 125 g ai/ha
  Ryegrass, Italian plant response rating: 0
[7]; 500 g ai/ha
  Ryegrass, Italian plant response rating (0 to 100 scale): 30
[8]; 125 g ai/ha
  Barnyardgrass plant response rating (0 to 100 scale): 60
[8]; 500 g ai/ha
  Barnyardgrass plant response rating (0 to 100 scale): 100
[9]; 125 g ai/ha
  Blackgrass plant response rating (0 to 100 scale): 20
[9]; 500 g ai/ha
  Blackgrass plant response rating (0 to 100 scale): 60
Corn (Zea mays); 125 g ai/ha
  Corn plant response rating (0 to 100 scale): 40
Corn (Zea mays); 500 g ai/ha
  Corn plant response rating (0 to 100 scale): 60
[10]; 125 g ai/ha
  Galium plant response rating (0 to 100 scale): 70
[10]; 500 g ai/ha
  Galium plant response rating (0 to 100 scale): 100
[11]; 125 g ai/ha
  Foxtail, Giant plant response rating (0 to 100 scale): 50
[11]; 500 g ai/ha
  Foxtail, Giant plant response rating (0 to 100 scale): 80
Kochia (Kochia scoparia) [12]; 125 g ai/ha
  Kochia plant response rating: 70
Kochia (Kochia scoparia) [12]; 500 g ai/ha
  Kochia plant response rating (0 to 100 scale): 100
[13]; 125 g ai/ha
  Pigweed plant response rating: 80
[13]; 500 g ai/ha
  Pigweed plant response rating (0 to 100 scale): 90
[14]; 125 g ai/ha
  Ragweed plant response rating: 0
[14]; 500 g ai/ha
  Ragweed plant response rating (0 to 100 scale): 30
[15]; 125 g ai/ha
  Wheat plant response rating: 20
[15]; 500 g ai/ha
  Wheat plant response rating (0 to 100 scale): 30
[16]
  Plant response rating, Barnyardgrass: 20
[17]
  Plant response rating, Ducksalad: 70
Rice (Oryza sativa)
  Plant response rating, Rice: 15
[18]
  Plant response rating, Sedge, Umbrella: 80

## CCCCOC(=O)c1c(Br)cccc1Oc1ncc(Cl)cn1 [Compound 100]
[1]; [21]
  Plant response rating, Ryegrass, Italian: 0
[1]; [19]
  Plant response rating, Ryegrass, Italian: 0
[2]
  Plant response rating, Barnyardgrass: 40
[2]; 125 g ai/ha
  Barnyardgrass plant response rating: 100
[3]; [21]
  Plant response rating, Foxtail, Giant: 50
[3]; [19]
  Plant response rating, Foxtail, Giant: 100
Kochia (Kochia scoparia) [4]; [21]
  Plant response rating, Kochia: 0
Kochia (Kochia scoparia) [4]; [19]
  Plant response rating, Kochia: 0
[5]; [21]
  Plant response rating, Pigweed: 0
[5]; [19]
  Plant response rating, Pigweed: 60
[6]; [21]
  Plant response rating, Ragweed: 0
[6]; [19]
  Plant response rating, Ragweed: 0
[7]; 31 g ai/ha
  Ryegrass, Italian plant response rating: 0
[7]; 125 g ai/ha
  Ryegrass, Italian plant response rating: 20
[8]; 31 g ai/ha
  Barnyardgrass plant response rating: 10
[8]; 125 g ai/ha
  Barnyardgrass plant response rating: 50
[9]; 31 g ai/ha
  Blackgrass plant response rating: 0
[9]; 125 g ai/ha
  Blackgrass plant response rating: 40
Corn (Zea mays); 31 g ai/ha
  Corn plant response rating: 10
Corn (Zea mays); 125 g ai/ha
  Corn plant response rating: 10
[10]; 31 g ai/ha
  Galium plant response rating: 20
[10]; 125 g ai/ha
  Galium plant response rating: 70
[11]; 31 g ai/ha
  Foxtail, Giant plant response rating: 20
[11]; 125 g ai/ha
  Foxtail, Giant plant response rating: 70
Kochia (Kochia scoparia) [12]; 31 g ai/ha
  Kochia plant response rating: 60
Kochia (Kochia scoparia) [12]; 125 g ai/ha
  Kochia plant response rating: 80
[13]; 31 g ai/ha
  Pigweed plant response rating: 30
[13]; 125 g ai/ha
  Pigweed plant response rating: 70
[14]; 31 g ai/ha
  Ragweed plant response rating: 0
[14]; 125 g ai/ha
  Ragweed plant response rating: 0
[15]; 31 g ai/ha
  Wheat plant response rating: 0
[15]; 125 g ai/ha
  Wheat plant response rating: 0
[16]
  Plant response rating, Barnyardgrass: 40
[17]
  Plant response rating, Ducksalad: 90
Rice (Oryza sativa)
  Plant response rating, Rice: 0
[18]
  Plant response rating, Sedge, Umbrella: 70

## O=C(OC/C=C/C(F)(F)F)c1c(Br)cccc1Oc1ncc(Cl)cn1 [Compound 50]
[1]; [21]
  Plant response rating, Ryegrass, Italian: 0
[1]; [19]
  Ryegrass, Italian plant response rating: 0
[2]
  Plant response rating, Barnyardgrass: 0
[2]; 125 g ai/ha
  Barnyardgrass plant response rating: 10
[3]; [21]
  Plant response rating, Foxtail, Giant: 50
[3]; [19]
  Foxtail, Giant plant response rating: 100
Kochia (Kochia scoparia) [4]; [21]
  Plant response rating, Kochia: 0
Kochia (Kochia scoparia) [4]; [19]
  Kochia plant response rating: 0
[5]; [21]
  Plant response rating, Pigweed: 0
[5]; [19]
  Pigweed plant response rating: 90
[6]; [21]
  Plant response rating, Ragweed: 0
[6]; [19]
  Ragweed plant response rating: 0
[7]; 31 g ai/ha
  Ryegrass, Italian plant response rating: 0
[7]; 125 g ai/ha
  Ryegrass, Italian plant response rating (0 to 100 scale): 20
[8]; 31 g ai/ha
  Barnyardgrass plant response rating: 0
[8]; 125 g ai/ha
  Barnyardgrass plant response rating (0 to 100 scale): 20
[9]; 31 g ai/ha
  Blackgrass plant response rating: 0
[9]; 125 g ai/ha
  Blackgrass plant response rating (0 to 100 scale): 20
Corn (Zea mays); 31 g ai/ha
  Corn plant response rating: 10
Corn (Zea mays); 125 g ai/ha
  Corn plant response rating (0 to 100 scale): 10
[10]; 31 g ai/ha
  Galium plant response rating: 60
[10]; 125 g ai/ha
  Galium plant response rating (0 to 100 scale): 90
[11]; 31 g ai/ha
  Foxtail, Giant plant response rating: 20
[11]; 125 g ai/ha
  Foxtail, Giant plant response rating (0 to 100 scale): 70
Kochia (Kochia scoparia) [12]; 31 g ai/ha
  Kochia plant response rating: 60
Kochia (Kochia scoparia) [12]; 125 g ai/ha
  Kochia plant response rating (0 to 100 scale): 90
[13]; 31 g ai/ha
  Pigweed plant response rating: 80
[13]; 125 g ai/ha
  Pigweed plant response rating (0 to 100 scale): 100
[14]; 31 g ai/ha
  Ragweed plant response rating: 0
[14]; 125 g ai/ha
  Ragweed plant response rating (0 to 100 scale): 0
[15]; 31 g ai/ha
  Wheat plant response rating: 0
[15]; 125 g ai/ha
  Wheat plant response rating (0 to 100 scale): 0
[16]
  Plant response rating, Barnyardgrass: 0
[17]
  Plant response rating, Ducksalad: 65
Rice (Oryza sativa)
  Plant response rating, Rice: 0
[18]
  Plant response rating, Sedge, Umbrella: 80
